# Patent US20090130707A1, “Methods of reducing the inhibitory effect of a redox active metal ion on the enzymatic hydrolysis of cellulosic material” (priority 2007, published 2009)
# Entries after “also recorded” stand apart in the source; their conditions may differ.
# How the values were obtained:
# [1] = tested on: Cellulolytic Enzyme Composition #1; assay: mini-scale PCS hydrolysis by Cellulolytic Enzyme Composition #1; format: biochemical, Trichoderma reesei; conditions: 10 mM FeSO4; 43 g PCS and 0.25 g enzyme per liter, pH 5, 50° C.
# Experimental: The effect of various salts (FeSO4, FeCl2, NaCl, Na2SO4, MnSO4, MnCl2) was determined in the hydrolysis of PCS by Cellulolytic Enzyme Composition #2. The PCS hydrolysis was performed in duplicate in capped 1.7 ml EPPENDORF® tubes (“mini-scale”) containing 1 ml suspensions of 43.4 g of PCS (dry weight) per liter, 10 mM salts in 50 mM sodium acetate pH 5. Cellulolytic Enzyme Composition #2 was added at 0.25 g per liter. Reactions without the addition of the salt served as controls. The capped tubes were incubated at 50° C. in an INNOVA® 4080 incubator shaker (New Brunswick Scientific Co., Inc., Edison, N.J., USA) at 150 rpm.
# (§1) Aliquots of the suspensions, sampled over time, were filtered by centrifugation using a 0.45 μm MULTISCREEN® HV membrane (Millipore, Billerica, Mass., USA) at 2000 rpm for 15 minutes using a SORVALL® RT7 centrifuge (Thermo Fisher Scientific, Waltham, Mass., USA). When not used immediately, the filtered sugary aliquots were frozen at −20° C. Sugar concentrations of the samples diluted in 0.005 M H2SO4 were measured after elution from a 4.6×250 mm AMINEX® HPX-87H column (Bio-Rad, Hercules, Calif., USA) by 0.005 M H2SO4 at a flow rate of 0.4 ml/minute at 65° C. with quantitation by integration of glucose and cellobiose using refractive index detection (CHEMSTATION®, AGILENT® 1100 HPLC, Agilent Technologies, Santa Clara, Calif., USA) calibrated with standards of glucose and cellobiose. The resultant equivalents were used to calculate the percentage of cellulose conversion for each reaction.
# Example 30 was repeated with both Cellulolytic Enzyme Composition #1 and Cellulolytic Enzyme Composition #2. Soluble reducing sugars were measured by HPLC as described in Example 30. Reactions without the addition of FeSO4 served as controls.
# The hydrolysis was performed in a series of duplicate “mini-scale” hydrolysis reactions according to the procedure described in Example 30.
# [2] = tested on: Cellulolytic Enzyme Composition #2; assay: mini-scale PCS hydrolysis by Cellulolytic Enzyme Composition #2; format: biochemical, Trichoderma reesei
# Experimental: Corn stover was pretreated at the U.S. Department of Energy National Renewable Energy Laboratory (NREL), […], Colo., USA, using dilute sulfuric acid. The following conditions were used for the pretreatment: 1.4 wt % sulfuric acid at 195° C. for 4.5 minutes. According to limit digestion with excess cellulase enzymes, the water-insoluble solids in the pretreated corn stover (PCS) contained 59.5% cellulose. Prior to use, the PCS was washed with a large volume of deionized water until soluble acid and sugars were removed. The dry weight of the water-washed PCS was 19.16%.
# The effect of various salts (FeSO4, FeCl2, NaCl, Na2SO4, MnSO4, MnCl2) was determined in the hydrolysis of PCS by Cellulolytic Enzyme Composition #2. […] Cellulolytic Enzyme Composition #2 was added at 0.25 g per liter. Reactions without the addition of the salt served as controls. The capped tubes were incubated at 50° C. in an INNOVA® 4080 incubator shaker (New Brunswick Scientific Co., Inc., Edison, N.J., USA) at 150 rpm.
# as §1
# The degree of cellulose conversion to glucose plus cellobiose (% conversion) was calculated using the following equation:
# % Conversion=(glucose+cellobiose×1.053)(mg/ml)×100×162/cellulose(mg/ml)×180)=(glucose+cellobiose×1.053)(mg/ml)×100/(cellulose(mg/ml)×1.111)
# In this equation the factor 1.111 reflects the weight gain in converting cellulose to glucose, and the factor 1.053 reflects the weight gain in converting cellobiose to glucose. Cellulose in PCS was determined by a limit digest of PCS to release glucose and cellobiose.
# [3] = target: T1, Trichoderma reesei Cel5A endoglucanase II (Trichoderma reesei, UniProt P07982); assay: PASC hydrolysis by Cel5A endoglucanase II; format: biochemical; conditions: 10 mM FeSO4; 2 g PASC and 40 mg enzyme per liter (FIG. 20D)
# T1 construct: made in house; host or cells: Aspergillus oryzae JaL250 (transformant JaL250AlLo27)
# T1 sequence (P07982 22-418): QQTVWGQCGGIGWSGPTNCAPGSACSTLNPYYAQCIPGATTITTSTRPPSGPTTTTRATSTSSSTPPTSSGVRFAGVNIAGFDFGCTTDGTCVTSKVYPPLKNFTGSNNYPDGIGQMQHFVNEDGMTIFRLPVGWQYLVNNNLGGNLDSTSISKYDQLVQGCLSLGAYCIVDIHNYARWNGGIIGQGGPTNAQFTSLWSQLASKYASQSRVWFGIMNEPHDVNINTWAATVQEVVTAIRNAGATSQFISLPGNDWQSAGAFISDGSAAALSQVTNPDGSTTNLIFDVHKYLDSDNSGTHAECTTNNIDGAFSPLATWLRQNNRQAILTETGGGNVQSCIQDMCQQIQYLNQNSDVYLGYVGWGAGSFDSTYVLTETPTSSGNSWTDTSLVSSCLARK
substance,measurement,setting,value
Ferrous sulfate [FeSO4],Effect on PCS hydrolysis,[1],significantly inhibited
same,Effect on PCS hydrolysis,"[2]; 10 mM salt, 43.4 g PCS and 0.25 g enzyme per liter, 50 mM sodium acetate pH 5, 50° C.",significant inhibition; also recorded: significantly inhibited
same,Effect on the cellulases,[2]; 0.1 and 1 mM,did not significantly affect
same,Effect on enzyme,[3],significantly inhibited
